Test results: ChEMBL document CHEMBL3785039, “The pharmacokinetics of diclofenac sodium following intravenous and oral administration” (Eur J Clin Pharmacol, 1979)

Key:
Type in all cases: ADME, organism-based
[1] = Plasma concentration in healthy subject (7 subjects) at 50 mg, po administered as single dose measured after 1.5 hrs by gas chromatography; conditions: human
[2] = Plasma concentration in healthy subject (7 subjects) at 50 mg, po administered as single dose measured after 3 hrs by gas chromatography; conditions: human
[3] = Plasma concentration in healthy subject (7 subjects) at 50 mg, po administered as single dose measured after 4.5 hrs by gas chromatography; conditions: human
[4] = Plasma concentration in healthy subject (7 subjects) at 50 mg, po administered as single dose measured after 5.5 hrs by gas chromatography; conditions: human
[5] = Slow disposition half life in healthy subject (7 subjects) at 50 mg, iv by three compartment open model; conditions: human, in vivo, read-out: alphat1/2 (converted)
Homo sapiens [6] = experiment: Fast disposition half life in healthy subject (7 subjects) at 50 mg, iv by three compartment open model; conditions: in vivo
[7] = Plasma concentration in healthy subject (7 subjects) at 50 mg, po administered as single dose measured after 4 hrs by gas chromatography; conditions: human
[8] = Terminal half life in healthy subject (7 subjects) at 50 mg, po administered as single dose; conditions: human, in vivo, read-out: beta t1/2 (converted)
[9] = Plasma concentration in healthy subject (7 subjects) at 50 mg, po administered as single dose measured after 9 hrs by gas chromatography; conditions: human
[10] = Plasma concentration in healthy subject (7 subjects) at 50 mg, po administered as single dose measured after 5 hrs by gas chromatography; conditions: human
[11] = Oral bioavailability in healthy subject (7 subjects) at 50 mg administered as single dose; conditions: human, in vivo
[12] = Plasma concentration in healthy subject (7 subjects) at 50 mg, po administered as single dose measured after 6 hrs by gas chromatography; conditions: human
[13] = Plasma concentration in healthy subject (7 subjects) at 50 mg, po administered as single dose measured after 3.5 hrs by gas chromatography; conditions: human
[14] = Plasma concentration in healthy subject (7 subjects) at 50 mg, po administered as single dose measured after 2.5 hrs by gas chromatography; conditions: human
[15] = AUC (0 to infinity) in healthy subject (7 subjects) at 50 mg, iv by three compartment open model; parameters: dose 50 mg, route intravenous, time infinity; conditions: human, in vivo
[16] = Plasma concentration in healthy subject (7 subjects) at 50 mg, po administered as single dose measured after 7 hrs by gas chromatography; conditions: human
[17] = Plasma clearance in healthy subject (7 subjects) at 50 mg, iv by three compartment open model; conditions: human
Homo sapiens [18] = experiment: First order inter-compartment transfer rate constant from central to deep tissue compartment in healthy subject (7 subjects) at 50 mg, iv by three compartment open model; conditions: in vivo
Homo sapiens [19] = experiment: Tlag in healthy subject (7 subjects) at 50 mg, po administered as single dose; conditions: in vivo
[20] = Elimination rate constant in healthy subject (7 subjects) at 50 mg, iv by three compartment open model; conditions: human, in vivo
[21] = Cmax in healthy subject (7 subjects) at 50 mg, iv measured after 5 mins; parameters: dose 50 mg, route intravenous; conditions: human, in vivo
[22] = Plasma concentration in healthy subject (7 subjects) at 50 mg, po administered as single dose measured after 6.5 hrs by gas chromatography; conditions: human
[23] = Plasma concentration in healthy subject (7 subjects) at 50 mg, po administered as single dose measured after 8 hrs by gas chromatography; conditions: human
[24] = Total volume of distribution in healthy subject (7 subjects) at 50 mg, iv by three compartment open model; conditions: human, in vivo
[25] = Terminal half life in healthy subject (7 subjects) at 50 mg, iv by three compartment open model; conditions: human, in vivo, read-out: beta t1/2 (converted)
[26] = Elimination rate constant in healthy subject (7 subjects) at 50 mg, po administered as single dose; conditions: human, in vivo
Homo sapiens [27] = experiment: First order inter-compartment transfer rate constant from central to tissue compartment in healthy subject (7 subjects) at 50 mg, iv by three compartment open model; conditions: in vivo
Homo sapiens [28] = experiment: First order inter-compartment transfer rate constant from tissue to central compartment in healthy subject (7 subjects) at 50 mg, iv by three compartment open model; conditions: in vivo
Homo sapiens [29] = experiment: First order inter-compartment transfer rate constant from deep tissue to central compartment in healthy subject (7 subjects) at 50 mg, iv by three compartment open model; conditions: in vivo
[30] = Plasma concentration in healthy subject (7 subjects) at 50 mg, po administered as single dose measured after 1 hr by gas chromatography; conditions: human
[31] = Cmax in healthy subject (7 subjects) at 50 mg, po administered as single dose; parameters: dose 50 mg, route oral; conditions: human, in vivo
[32] = Tmax in healthy subject (7 subjects) at 50 mg, po administered as single dose; conditions: human, in vivo
[33] = AUC (0 to infinity) in healthy subject (7 subjects) at 50 mg, po administered as single dose; parameters: dose 50 mg, route oral, time infinity; conditions: human, in vivo
[34] = Plasma concentration in healthy subject (7 subjects) at 50 mg, po administered as single dose measured after 2 hrs by gas chromatography; conditions: human

Which results are given for O=C([O-])Cc1ccccc1Nc1c(Cl)cccc1Cl.[Na+] [DICLOFENAC SODIUM]?
concentration at 1.5 h [1]: 100 ng/mL; concentration at 3 h [2]: 690 ng/mL; concentration at 4.5 h [3]: 215 ng/mL; concentration at 5.5 h [4]: 54 ng/mL; half-life [5]: 0.26 h; t1/2 (Homo sapiens [6]): 3 min; concentration at 4 h [7]: 110 ng/mL; half-life [8]: 1.8 h; concentration at 9 h [9]: 3 ng/mL; concentration at 5 h [10]: 95 ng/mL; bioavailability [11]: 54%; concentration at 6 h [12]: 35 ng/mL; concentration at 3.5 h [13]: 240 ng/mL; concentration at 2.5 h [14]: 710 ng/mL; AUC(0-inf) [15]: 3290 ng·h/mL; concentration at 7 h [16]: 15 ng/mL; clearance [17]: 263 mL/min; K (Homo sapiens [18]): 2.6 h⁻¹; Tlag (Homo sapiens [19]): 1.9 h; k el [20]: 0.00236 s⁻¹; Cmax [21]: 7800 ng/mL; concentration at 6.5 h [22]: 25 ng/mL; concentration at 8 h [23]: 11 ng/mL; Vd [24]: 0.172 L/kg; half-life [25]: 1.1 h; k el [26]: 0.000183 s⁻¹; K (Homo sapiens [27]): 5.5 h⁻¹; K (Homo sapiens [28]): 5.2 h⁻¹; K (Homo sapiens [29]): 0.8 h⁻¹; concentration at 1 h [30]: 200 ng/mL; Cmax [31]: 2000 ng/mL; Tmax [32]: 2.5 h; AUC(0-inf) [33]: 1670 ng·h/mL; concentration at 2 h [34]: 860 ng/mL
